# Laboratory results published in patent publication US8420820B2, “Pyrrolopyridinylpyrimidin-2-ylamine derivatives” (Merck Patent GmbH, priority 2008, dated 2013).
# How the values were obtained:
# [1] = test system: PDK1 kinase activity in PC3 cells (phospho-T308-PKB); assay: Cellular testing of PDK1 kinase inhibitors in PC3 cells (Luminex, phospho-T308-PKB); assay type: cell-based; settings: Homo sapiens, PC-3, 0.5 h, 30 min with test substance, serum-free, phospho-T308-PKB by Luminex, read-out: IC50 [PC3 P-PKB Thr308]
# Protocol: Method for the Cellular Testing of PDK1 Kinase Inhibitors in PC3 Cells.
# The cellular assay for the determination of the PDK1 kinase activity is carried out as a Luminex assay in the 96-well format. PC3 cells are sown at 20,000 cells per well in 100 μl of medium (45% of […]/45% of Ham's F12/10% of FCS) and incubated on the following day for 30 min with a serial dilution of the test substance (7 concentrations) under serum-free conditions. The cells are subsequently lysed using 90 μl of lysis buffer (20 mM tris/HCl pH 8.0, 150 mM NaCl, 1% of NP40, 10% of glycerol, 1% of phosphatase inhibitor I, 1% of phosphatase inhibitor II, 0.1% of protease inhibitor cocktail III, 0.01% of benzonase) per well, and the lysates are separated off from insoluble cell constituents by means of centrifugation through a 96-well filter plate (0.65 μm). The lysates are incubated overnight at 4° C. with shaking with Luminex beads to which an anti-total PKB antibody is coupled. The detection is carried out on the following day by addition of a phospho-T308-PKB antibody and a species-specific […] secondary antibody. The detection of phospho-T308-PKB is carried out by measurement in a Luminex100 instrument by determination of 100 events per cavity in a measurement time of 60 sec. As pharmacological blank, the signals obtained from cells which have been treated with 10 μM staurosporin are subtracted from all other batches. The control value used for maximum phosphorylation of PKB on T308 are the signals from cells which have only been treated with the solvent (0.3% of DMSO). The values of the batches treated with test substance are calculated therefrom as percentage of control, and IC50 values are determined by means of RS1.
# [2] = test system: A2780 (ovary); assay: Tumour cell proliferation/vitality assay (Alamar Blue); assay type: cell-based; settings: Homo sapiens, 96 h, A2780 cells, 4 days of cultivation with test substance
# Protocol: In the present experiment description, the inhibition of tumour cell proliferation/tumour cell vitality by active ingredients is described.
# The cells are sown in a suitable cell density in microtitre plates (96-well format) and the test substances are added in the form of a concentration series. After four further days of cultivation in serum-containing medium, the tumour cell proliferation/tumour cell vitality can be determined by means of an Alamar Blue test system.
# The cells are cultivated in medium. At intervals of several days, the cells are detached from the culture dishes with the aid of trypsin solution and sown in suitable dilution in fresh medium. The cells are cultivated at 37° Celsius and 10% CO2.
# A defined number of cells (for example 2000 cells) per culture/well in a volume of 180 μl of culture medium are sown in microtitre plates (96 well cell-culture plates) using a multichannel pipette. The cells are subsequently cultivated in a CO2 incubator (37° C. and 10% CO2).
# The test substances are dissolved, for example, in DMSO and subsequently employed in corresponding concentration (if desired in a dilution series) in the cell culture medium. The dilution steps can be adapted depending on the efficiency of the active ingredients and the desired spread of the concentrations. Cell culture medium is added to the test substances in corresponding concentrations. The addition of the test substances to the cells can take place on the same day as the sowing of the cells. To this end, in each case 20 μl of substance solution from the predilution plate are added to the cultures/wells. The cells are cultivated for a further 4 days at 37° Celsius and 10% CO2.
# In each case, 20 μl of Alamar Blue reagent are added per well, and the microtitre plates are incubated, for example, for a further seven hours in a CO2 incubator (at 37° C. and 10% CO2). The plates are measured in a reader with a fluorescence filter at a wavelength of 540 nm. The plates can be shaken gently immediately before the measurement.
# The absorbance value of the medium control (no cells and test substances used) is subtracted from all other absorbance values. The controls (cells without test substance) are set equal to 100 percent, and all other absorbance values are set in relation thereto (for example in % of control):
# IC50 values (50% inhibition) are determined with the aid of statistics programs, such as, for example, RS1.
# [3] = target: T1, PDK1 (Homo sapiens, UniProt O15530); assay: Test for the inhibition of PDK1 (flashplate, 33P-ATP); assay type: biochemical; settings: His6-PDK1 3.4 nM, 4 μM ATP, 30° C., 60 min
# T1 construct: His6 (N)
# T1 sequence (O15530 51-556): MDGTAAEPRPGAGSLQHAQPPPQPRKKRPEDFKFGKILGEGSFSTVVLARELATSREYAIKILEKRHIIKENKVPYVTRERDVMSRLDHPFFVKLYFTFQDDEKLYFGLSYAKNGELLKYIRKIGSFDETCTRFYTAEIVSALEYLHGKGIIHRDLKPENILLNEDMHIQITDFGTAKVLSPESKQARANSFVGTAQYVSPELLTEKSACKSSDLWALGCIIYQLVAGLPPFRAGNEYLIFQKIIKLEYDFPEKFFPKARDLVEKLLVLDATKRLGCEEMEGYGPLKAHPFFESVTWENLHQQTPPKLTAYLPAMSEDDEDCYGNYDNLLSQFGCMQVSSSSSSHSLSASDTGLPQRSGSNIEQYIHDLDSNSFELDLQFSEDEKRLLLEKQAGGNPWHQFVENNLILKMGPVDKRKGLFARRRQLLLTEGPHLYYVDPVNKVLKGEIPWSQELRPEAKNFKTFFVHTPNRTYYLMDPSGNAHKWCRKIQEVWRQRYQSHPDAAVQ
# Protocol: The experimental batches are carried out in a flashplate system with 384 wells/microtitration plate.
# In each case, the PDK1 sample His6-PDK1(SEQ ID NO: 2)(1-50)(3.4 nM), the PDK1 substrate biotin-bA-bA-[…] (SEQ ID NO: 3) (400 nM), 4 μM ATP (with 0.2 μCi of ^33P-ATP/well) and the test substance in 50 μl of conventional experimental solution per well are incubated at 30° C. for 60 min. The test substances are employed in corresponding concentrations (if desired in a dilution series). The control is carried out without test substance. The reaction is stopped using standard methods and washed. The activity of the kinase is measured via the incorporated radioactivity in top count. In order to determine the non-specific kinase reaction (blank value), the experimental batches are carried out in the presence of 100 nM staurosporin.
# The radioactivity (decompositions per minute) of the blank value (no use of test substance in the presence of staurosporin) is subtracted from all other radioactivity values. The controls (kinase activity without test substance) are set equal to 100 percent and all other radioactivity values (after subtracting the blank value) are expressed set in relation thereto (for example in % of the control).
# IC50 values (50% inhibition) are determined with the aid of statistics programmes, such as, for example, RS1.
SMILES,IC50 [1] [µM],IC50 [2] [µM],IC50 [3] [µM]
"CC(C)n1cc(-c2cnc3[nH]cc(-c4cc([C@@](C)(O)c5ccccc5)nc(N)n4)c3c2)cn1 [Compound A124, (S)-1-{2-Amino-6-[5-(1-isopropyl-1H-pyrazol-4-yl)-1H-pyrrolo[2,3-b]pyridin-3-yl]pyrimidin-4-yl}-1-phenylethanol]",0.01 to 1,0.01 to 1,0.01 to 1
"CCc1cc(-c2c[nH]c3ncc(-c4cnn(CCN(C)C)c4)cc23)nc(N)n1 [Compound A1, 4-{5-[1-(2-dimethylaminoethyl)-1H-pyrazol-4-yl]-1H-pyrrolo[2,3-b]pyridin-3-yl}-6-ethylpyrimidin-2-ylamine]",10 to 20,–,0.01 to 1
"CCc1cc(-c2c[nH]c3ncc(-c4cnn(CC(=O)N5CCCc6ccccc65)c4)cc23)nc(N)n1 [Compound A128, 2-{4-[3-(2-Amino-6-ethylpyrimidin-4-yl)-1H-pyrrolo[2,3-b]pyridin-5-yl]pyrazol-1-yl}-1-(3,4-dihydro-2H-quinolin-1-yl)ethanone]",1 to 10,–,0.01 to 1
"CC(C)n1cc(-c2cnc3[nH]cc(-c4cc(C5CCCCC5)nc(N)n4)c3c2)cn1 [Compound A111, 4-Cyclohexyl-6-[5-(1-isopropyl-1H-pyrazol-4-yl)-1H-pyrrolo[2,3-b]pyridin-3-yl]pyrimidin-2-ylamine]",1 to 10,–,0.01 to 1
"CCc1cc(-c2c[nH]c3ncc(-c4ccc(Cl)s4)cc23)nc(N)n1 [Compound A37, 4-[5-(5-Chlorothiophen-2-yl)-1H-pyrrolo[2,3-b]pyridin-3-yl]-6-ethylpyrimidin-2-ylamine]",10 to 20,–,1 to 10
"CCc1cc(-c2c[nH]c3ncc(-c4cnn(C5CCN(S(C)(=O)=O)CC5)c4)cc23)nc(N)n1 [Compound A44, 4-Ethyl-6-{5-[1-(1-methanesulfonylpiperidin-4-yl)-1H-pyrazol-4-yl]-1H-pyrrolo[2,3-b]pyridin-3-yl}pyrimidin-2-ylamine]",1 to 10,–,0.01 to 1
"CC(C)n1cc(-c2cnc3[nH]cc(-c4cc(CCn5ccnc5)nc(N)n4)c3c2)cn1 [Compound A110, 4-(2-Imidazol-1-ylethyl)-6-[5-(1-isopropyl-1H-pyrazol-4-yl)-1H-pyrrolo[2,3-b]-pyridin-3-yl]pyrimidin-2-ylamine]",10 to 20,–,0.01 to 1
"CC(C)n1cc(-c2cnc3[nH]cc(-c4cc(CCN5CCN(C)CC5)nc(N)n4)c3c2)cn1 [Compound A43, 4-[5-(1-Isopropyl-1H-pyrazol-4-yl)-1H-pyrrolo[2,3-b]pyridin-3-yl]-6-[2-(4-methylpiperazin-1-yl)ethyl]pyrimidin-2-ylamine]",10 to 20,–,0.01 to 1
"CCc1cc(-c2c[nH]c3ncc(-c4cnn(Cc5ccc(F)c(F)c5)c4)cc23)nc(N)n1 [Compound A99, 4-{5-[1-(3,4-Difluorobenzyl)-1H-pyrazol-4-yl]-1H-pyrrolo[2,3-b]pyridin-3-yl}-6-ethylpyrimidin-2-ylamine]",10 to 20,–,0.01 to 1
"CCCC(O)c1cc(-c2c[nH]c3ncc(-c4cnn(C(C)C)c4)cc23)nc(N)n1 (centres unmarked) [Compound A35, 1-{2-Amino-6-[5-(1-isopropyl-1H-pyrazol-4-yl)-1H-pyrrolo[2,3-b]pyridin-3-yl]-pyrimidin-4-yl}butan-1-ol]",1 to 10,–,0.01 to 1
"CC(C)n1cc(-c2cnc3[nH]cc(-c4cc(CCCCO)nc(N)n4)c3c2)cn1 [Compound A40, 4-{2-Amino-6-[5-(1-isopropyl-1H-pyrazol-4-yl)-1H-pyrrolo[2,3-b]pyridin-3-yl]-pyrimidin-4-yl}butan-1-ol]",1 to 10,–,0.01 to 1
"CN(C)CCn1cc(-c2cnc3[nH]cc(-c4cc(CCN5CCN(C)CC5)nc(N)n4)c3c2)cn1 [Compound A41, 4-{5-[1-(2-Dimethylaminoethyl)-1H-pyrazol-4-yl]-1H-pyrrolo[2,3-b]pyridin-3-yl}-6-[2-(4-methylpiperazin-1-yl)ethyl]pyrimidin-2-ylamine]",10 to 20,–,0.01 to 1
"CC(C)n1cc(-c2cnc3[nH]cc(-c4cc(C(O)c5ccccc5)nc(N)n4)c3c2)cn1 (centres unmarked) [Compound A115, {2-Amino-6-[5-(1-isopropyl-1H-pyrazol-4-yl)-1H-pyrrolo[2,3-b]pyridin-3-yl]-pyrimidin-4-yl}phenylmethanol]",10 to 20,–,1 to 10
"CCc1cc(-c2c[nH]c3ncc(-c4cnn(C5CCN(C(C)=O)CC5)c4)cc23)nc(N)n1 [Compound A46, 1-(4-{4-[3-(2-Amino-6-ethylpyrimidin-4-yl)-1H-pyrrolo[2,3-b]pyridin-5-yl]-pyrazol-1-yl}piperidin-1-yl)ethanone]",10 to 20,–,0.01 to 1
"CCc1cc(-c2c[nH]c3ncc(-c4ccc(N5CCNCC5)nc4)cc23)nc(N)n1 [Compound A10, 4-ethyl-6-[5-(6-piperazin-1-ylpyridin-3-yl)-1H-pyrrolo[2,3-b]pyridin-3-yl]pyrimidin-2-ylamine]",1 to 10,–,0.01 to 1
"CCc1cc(-c2c[nH]c3ncc(-c4cnn(C(C)C(=O)Nc5ccc6[nH]ccc6c5)c4)cc23)nc(N)n1 (centres unmarked) [Compound A121, 2-{4-[3-(2-Amino-6-ethylpyrimidin-4-yl)-1H-pyrrolo[2,3-b]pyridin-5-yl]pyrazol-1-yl}-N-(1H-indol-5-yl)propionamide]",1 to 10,–,0.01 to 1
"CC(C)n1cc(-c2cnc3[nH]cc(-c4cc(CCCO)nc(N)n4)c3c2)cn1 [Compound A38, 3-{2-Amino-6-[5-(1-isopropyl-1H-pyrazol-4-yl)-1H-pyrrolo[2,3-b]pyridin-3-yl]-pyrimidin-4-yl}propan-1-ol]",10 to 20,–,0.01 to 1
"CC(C)n1cc(-c2cnc3[nH]cc(-c4cc(CCCn5ccnc5)nc(N)n4)c3c2)cn1 [Compound A108, 4-(3-Imidazol-1-ylpropyl)-6-[5-(1-isopropyl-1H-pyrazol-4-yl)-1H-pyrrolo-[2,3-b]pyridin-3-yl]pyrimidin-2-ylamine]",10 to 20,–,0.01 to 1
"CCc1cc(-c2c[nH]c3ncc(-c4cnn(CC(=O)O)c4)cc23)nc(N)n1 [Compound A31, {4-[3-(2-Amino-6-ethylpyrimidin-4-yl)-1H-pyrrolo[2,3-b]pyridin-5-yl]pyrazol-1-yl}acetylic acid]",10 to 20,–,0.01 to 1
"CCc1cc(-c2c[nH]c3ncc(-c4cnn(CCO)c4)cc23)nc(N)n1 [Compound A33, 2-{4-[3-(2-Amino-6-ethylpyrimidin-4-yl)-1H-pyrrolo[2,3-b]pyridin-5-yl]pyrazol-1-yl}ethanol]",10 to 20,–,0.01 to 1
